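Dose response: 5 concentrations. Exposure: 48 h. Format: 96-well plates. Endpoint: linear interpolation; highest concentration if not reached. At the GI50, growth is halved. TGI: concentration producing complete growth inhibition.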
Legend:
Test in all cases: NCI anticancer screen, dose series, 48 h
[1] = test system: NCI-H226 lung
[2] = test system: NCI/ADR-RES ovarian
[3] = test system: 786-0 renal
[4] = test system: EKVX NSCLC
[5] = test system: HL-60(TB) leukemia
[6] = test system: SNB-19 CNS
[7] = test system: A498 renal
[8] = test system: SN12C renal
[9] = test system: DU-145 prostate
[10] = test system: SK-OV-3 ovarian
[11] = test system: HS 578T breast
[12] = test system: NCI-H522 lung
[13] = test system: MALME-3M melanoma
[14] = test system: A549 NSCLC
[15] = test system: SK-MEL-2 melanoma
[16] = test system: HCT-15 colon
[17] = test system: NCI-H460 lung
[18] = test system: CAKI-1 renal
[19] = test system: SW-620 colon
[20] = test system: HCT-116 colon
[21] = test system: LOX IMVI melanoma
[22] = test system: T-47D breast
[23] = test system: SNB-75 CNS
[24] = test system: RXF 393 renal
[25] = test system: HCC-2998 colon
[26] = test system: HOP-92 NSCLC
[27] = test system: ACHN renal
[28] = test system: U251 CNS
[29] = test system: SK-MEL-5 melanoma
[30] = test system: NCI-H23 lung
[31] = test system: RPMI-8226 leukemia
[32] = test system: OVCAR-3 ovarian
[33] = test system: MCF7 breast
[34] = test system: MDA-MB-231 breast
[35] = test system: SK-MEL-28 melanoma
[36] = test system: CCRF-CEM leukemia
[37] = test system: OVCAR-5 ovarian
[38] = test system: TK-10 renal
[39] = test system: IGROV1 ovarian
[40] = test system: SF-539 CNS
[41] = test system: PC-3 prostate
[42] = test system: SF-268 CNS
[43] = test system: SR leukemia
[44] = test system: OVCAR-8 ovarian
[45] = test system: COLO 205 colon
[46] = test system: UO-31 renal
[47] = test system: M14 melanoma
[48] = test system: MDA-MB-435
[49] = test system: BT-549 breast
[50] = test system: K-562 leukemia
[51] = test system: HT29 colon
[52] = test system: SF-295 CNS
[53] = test system: UACC-62 melanoma
[54] = test system: KM12 colon
[55] = test system: OVCAR-4 ovarian
[56] = test system: HOP-62 NSCLC
[57] = test system: UACC-257 melanoma
[58] = test system: MOLT-4 leukemia

What does the source list for O=C(Oc1ccc(CO[N+](=O)[O-])cc1)c1ccccc1?
GI50 [1]: 0.214 µM; TGI [1]: 0.518 µM; GI50 [2]: 0.195 µM; TGI [2]: 0.434 µM; GI50 [3]: 0.0945 µM; TGI [3]: 0.235 µM; GI50 [4]: 0.407 µM; TGI [4]: 1.59 µM; GI50 [5]: 0.0514 µM; TGI [5]: 0.267 µM; GI50 [6]: 0.202 µM; TGI [6]: 0.706 µM; GI50 [7]: 1.07 µM; TGI [7]: 2.26 µM; GI50 [8]: 0.216 µM; TGI [8]: 0.701 µM; GI50 [9]: 0.289 µM; TGI [9]: 0.818 µM; GI50 [10]: 0.348 µM; TGI [10]: 1.3 µM; GI50 [11]: 0.0911 µM; TGI [11]: 0.422 µM; GI50 [12]: 0.158 µM; TGI [12]: 0.318 µM; GI50 [13]: 0.123 µM; TGI [13]: 0.272 µM; GI50 [14]: 1.23 µM; TGI [14]: 2.49 µM; GI50 [15]: 0.162 µM; TGI [15]: 0.322 µM; GI50 [16]: 0.172 µM; TGI [16]: 0.358 µM; GI50 [17]: 0.239 µM; TGI [17]: 1.09 µM; GI50 [18]: 0.163 µM; TGI [18]: 0.308 µM; GI50 [19]: 0.103 µM; TGI [19]: 0.251 µM; GI50 [20]: 0.101 µM; TGI [20]: 0.241 µM; GI50 [21]: 0.163 µM; TGI [21]: 0.316 µM; GI50 [22]: 0.137 µM; TGI [22]: 0.323 µM; GI50 [23]: 0.158 µM; TGI [23]: 0.333 µM; GI50 [24]: 0.165 µM; TGI [24]: 0.319 µM; GI50 [25]: 0.201 µM; TGI [25]: 0.447 µM; GI50 [26]: 0.151 µM; TGI [26]: 0.313 µM; GI50 [27]: 0.113 µM; TGI [27]: 0.236 µM; GI50 [28]: 0.145 µM; TGI [28]: 0.276 µM; GI50 [29]: 0.474 µM; TGI [29]: 1.73 µM; GI50 [30]: 0.351 µM; TGI [30]: 1.43 µM; GI50 [31]: 0.0912 µM; TGI [31]: 0.33 µM; GI50 [32]: 0.153 µM; TGI [32]: 0.295 µM; GI50 [33]: 0.194 µM; TGI [33]: 0.722 µM; GI50 [34]: 0.144 µM; TGI [34]: 0.306 µM; GI50 [35]: 0.171 µM; TGI [35]: 0.332 µM; GI50 [36]: 0.0324 µM; TGI [36]: 0.173 µM; GI50 [37]: 0.172 µM; TGI [37]: 0.316 µM; GI50 [38]: 0.173 µM; TGI [38]: 0.334 µM; GI50 [39]: 0.203 µM; TGI [39]: 0.411 µM; GI50 [40]: 0.153 µM; TGI [40]: 0.287 µM; GI50 [41]: 0.13 µM; TGI [41]: 0.301 µM; GI50 [42]: 0.167 µM; TGI [42]: 0.317 µM; GI50 [43]: 0.115 µM; TGI [43]: 0.542 µM; GI50 [44]: 0.153 µM; TGI [44]: 0.288 µM; GI50 [45]: 0.128 µM; TGI [45]: 0.301 µM; GI50 [46]: 0.172 µM; TGI [46]: 0.322 µM; GI50 [47]: 0.115 µM; TGI [47]: 0.271 µM; GI50 [48]: 0.157 µM; TGI [48]: 0.307 µM; GI50 [49]: 0.139 µM; TGI [49]: 0.27 µM; GI50 [50]: 0.0708 µM; TGI [50]: 0.325 µM; GI50 [51]: 0.136 µM; TGI [51]: 0.27 µM; GI50 [52]: 0.194 µM; TGI [52]: 0.631 µM; GI50 [53]: 0.169 µM; TGI [53]: 0.396 µM; GI50 [54]: 0.163 µM; TGI [54]: 0.33 µM; GI50 [55]: 0.18 µM; TGI [55]: 0.381 µM; GI50 [56]: 0.161 µM; TGI [56]: 0.316 µM; GI50 [57]: 0.207 µM; TGI [57]: 0.532 µM

What does the source list for Cc1ccc(S(=O)(=O)c2nc(-c3ccccc3)oc2S(C)=O)cc1 (centres undefined)?
GI50 [1]: 1.96 µM; TGI [1]: 4.73 µM; GI50 [2]: 2.14 µM; TGI [2]: 4.89 µM; GI50 [3]: 1.44 µM; TGI [3]: 2.82 µM; GI50 [4]: 1.72 µM; TGI [4]: 3.4 µM; GI50 [5]: 1.52 µM; TGI [5]: 4.71 µM; GI50 [6]: 3.35 µM; TGI [6]: 11.2 µM; GI50 [7]: 4.23 µM; TGI [7]: 13.6 µM; GI50 [8]: 1.68 µM; TGI [8]: 3.43 µM; GI50 [9]: 1.25 µM; TGI [9]: 2.63 µM; GI50 [10]: 15.3 µM; TGI [10]: 28.6 µM; GI50 [11]: 5.27 µM; TGI [11]: 40 µM; GI50 [12]: 1.12 µM; TGI [12]: 2.59 µM; GI50 [13]: 1.7 µM; TGI [13]: 3.47 µM; GI50 [14]: 5.23 µM; TGI [14]: 18.5 µM; GI50 [15]: 1.73 µM; TGI [15]: 3.73 µM; GI50 [17]: 2.92 µM; TGI [17]: 8.98 µM; GI50 [18]: 1.5 µM; TGI [18]: 2.84 µM; GI50 [19]: 1.47 µM; TGI [19]: 3.48 µM; GI50 [20]: 1.49 µM; TGI [20]: 2.89 µM; GI50 [21]: 1.4 µM; TGI [21]: 2.81 µM; GI50 [22]: 1.23 µM; TGI [22]: 3.17 µM; GI50 [23]: 2.69 µM; TGI [23]: 9.55 µM; GI50 [24]: 1.46 µM; TGI [24]: 2.87 µM; GI50 [25]: 16.4 µM; TGI [25]: 30.4 µM; GI50 [26]: 1.38 µM; TGI [26]: 2.77 µM; GI50 [27]: 1.52 µM; TGI [27]: 2.88 µM; GI50 [28]: 1.7 µM; TGI [28]: 3.17 µM; GI50 [30]: 1.91 µM; TGI [30]: 3.97 µM; GI50 [31]: 1.4 µM; TGI [31]: 4.13 µM; GI50 [32]: 1.03 µM; TGI [32]: 2.35 µM; GI50 [33]: 1.21 µM; TGI [33]: 3.62 µM; GI50 [34]: 1.47 µM; TGI [34]: 2.87 µM; GI50 [35]: 1.95 µM; TGI [35]: 3.5 µM; GI50 [36]: 2.77 µM; TGI [36]: 8.08 µM; GI50 [37]: 1.85 µM; TGI [37]: 3.47 µM; GI50 [38]: 1.45 µM; TGI [38]: 2.79 µM; GI50 [40]: 1.55 µM; TGI [40]: 3.01 µM; GI50 [41]: 2.03 µM; TGI [41]: 4.45 µM; GI50 [42]: 2.14 µM; TGI [42]: 4.14 µM; GI50 [43]: 1.67 µM; TGI [43]: 7.7 µM; GI50 [44]: 1.77 µM; TGI [44]: 3.79 µM; GI50 [45]: 1.72 µM; TGI [45]: 3.56 µM; GI50 [46]: 1.26 µM; TGI [46]: 2.53 µM; GI50 [47]: 1.59 µM; TGI [47]: 3.25 µM; GI50 [48]: 1.53 µM; TGI [48]: 3.04 µM; GI50 [49]: 1.71 µM; TGI [49]: 3.37 µM; GI50 [50]: 1.4 µM; TGI [50]: 4.77 µM; GI50 [51]: 1.81 µM; TGI [51]: 5.03 µM; GI50 [58]: 2.12 µM; TGI [58]: 5.5 µM; GI50 [52]: 10 µM; TGI [52]: 22.2 µM; GI50 [53]: 1.5 µM; TGI [53]: 2.87 µM; GI50 [54]: 1.95 µM; TGI [54]: 3.86 µM; GI50 [55]: 1.91 µM; TGI [55]: 3.65 µM; GI50 [56]: 6.87 µM; TGI [56]: 20.3 µM; GI50 [57]: 1.58 µM; TGI [57]: 3.11 µM

From PubChem BioAssay (NCI)
